Laboratory results as given in ChEMBL document CHEMBL3045112, “In vitro antimicrobial assessment of coumarin-based s-triazinyl piperazines” (2012).
In brackets after ≈: the same amount, converted by molar mass.

Key:
[1] = tested on: Staphylococcus aureus; test: Antibacterial activity against Staphylococcus aureus at 100 ug/disc after 24 hr by disk diffusion test; details: read-out: IZ
[2] = tested on: Escherichia coli; test: Antibacterial activity against Escherichia coli at 100 ug/disk after 24 hr by disk diffusion test; details: read-out: IZ
[3] = tested on: Pseudomonas aeruginosa; test: Antibacterial activity against Pseudomonas aeruginosa at 100 ug/disk after 24 hr by disk diffusion test; details: read-out: IZ
[4] = tested on: Bacillus subtilis; test: Antibacterial activity against Bacillus subtilis at 100 ug/disk after 24 hr by disk diffusion test; details: read-out: IZ
[5] = tested on: Escherichia coli; test: Antibacterial activity against Escherichia coli after 24 hr by agar plate method; type: functional
[6] = tested on: Bacillus subtilis; test: Antibacterial activity against Bacillus subtilis after 24 hr by agar plate method; type: functional
[7] = tested on: Staphylococcus aureus; test: Antibacterial activity against Staphylococcus aureus after 24 hr by agar plate method; type: functional
[8] = tested on: Pseudomonas aeruginosa; test: Antibacterial activity against Pseudomonas aeruginosa after 24 hr by agar plate method; type: functional
[9] = tested on: Aspergillus niger; test: Antifungal activity against Aspergillus niger at 100 ug/disk after 48 hr by disk diffusion test; type: functional; details: read-out: IZ
[10] = tested on: Candida albicans; test: Antifungal activity against Candida albicans at 100 ug/disk after 48 hr by disk diffusion test; type: functional; details: read-out: IZ
[11] = tested on: Aspergillus niger; test: Antifungal activity against Aspergillus niger after 48 hr by agar plate method; type: functional
[12] = tested on: Candida albicans; test: Antifungal activity against Candida albicans after 48 hr by agar plate method; type: functional

Row | Compound | zone of inhibition at 100 µg/disc [1] | zone of inhibition at 100 µg/disc [2] | zone of inhibition at 100 µg/disc [3] | zone of inhibition at 100 µg/disc [4] | MIC [5] | MIC [6] | MIC [7] | MIC [8] | zone of inhibition at 100 µg/disc [9] | zone of inhibition at 100 µg/disc [10] | MIC [11] | MIC [12]
1 | O=C(O)c1cn(C2CC2)c2cc(N3CCNCC3)c(F)cc2c1=O [CIPROFLOXACIN] | 29 mm | 32 mm | 33 mm | 29 mm | 3.12 µg/mL (≈ 9.43 µM) | 3.12 µg/mL (≈ 9.43 µM) | 3.12 µg/mL (≈ 9.43 µM) | 3.12 µg/mL (≈ 9.43 µM) | – | – | – | –
2 | CC(=O)N1CCN(c2ccc(OCC3COC(Cn4ccnc4)(c4ccc(Cl)cc4Cl)O3)cc2)CC1 (configuration not stated) [KETOCONAZOLE] | – | – | – | – | – | – | – | – | 30 mm | 33 mm | 6.25 µg/mL (≈ 11.8 µM) | 3.12 µg/mL (≈ 5.88 µM)
